The nature of data set [1]: physchem. As to conditions: buffer, pH 7.4.
Data set [2] is described as follows: in vitro. As to conditions: dog, MDCK.
The nature of data set [3]: in vivo. As to conditions: rat, po, 3 mg/kg.
Data set [4] is described as follows: in vivo. The conditions noted are these: rat, iv, 1 mg/kg.
The nature of data set [5]: in vivo. The conditions noted are these: rat, po, 3 mg/kg. This is another data set of the same source.
Data set [6] is described as follows: in vivo. The conditions noted are these: rat, brain, iv, 1 mg/kg.
Data set [7] in a line: in vivo. As to conditions: rat, brain, iv, 0.5 mg/kg.
Data set [8] in a line: in vivo. As to conditions: rat, iv, 0.5 mg/kg.
Data set [9] in a line: in vivo. As to conditions: rat, po, 2 mg/kg.
A short description of data set [10]: in vivo. As to conditions: rat, po, 2 mg/kg. This is another data set of the same source.

The values below come from ChEMBL document CHEMBL4308832, “Discovery of Allosteric, Potent, Subtype Selective, and Peripherally Restricted TrkA Kinase Inhibitors” (J Med Chem, 2018).

Each structure is given as a SMILES string.

The term logD denotes lipophilicity at a set pH, counting ionised and neutral species. A lower logD goes with a more hydrophilic compound. The Papp A→B is the apparent permeability from the apical to the basolateral side of a cell layer. A higher Papp A→B goes with fast passage. In turn, `Cc1cc(NC(=O)c2ccc(Cl)cc2Cl)n(-c2ccccc2)n1` had a log distribution coefficient (logD) in [1] of 3.3. Also, the Papp A→B in data set [2] stood at 300 nm/s.
The like results for `NC(=O)c1cc(NC(=O)c2cc(-c3ccccn3)c(F)cc2Cl)n(-c2ccccc2)n1` were, in that order, 2.7 and 100 nm/s.
Taken in the same sequence, the figures for `CC(=O)Nc1cccc(-c2ccc(Cl)c(C(=O)Nc3cc(C(N)=O)nn3-c3ccccc3)c2)n1` were 2.7 and 100 nm/s.
The like results for `O=C(NC1COC1)c1cc(NC(=O)c2cc(-c3ccccn3)c(Cl)cc2Cl)n(-c2ccccc2)n1` were, in that order, 3 and 110 nm/s.
Regarding `NC(=O)c1cc(NC(=O)c2cc(-c3ccccn3)c(Cl)cc2Cl)n(-c2ccccc2)n1`, in data set [1], the logD turned out to be 3. In addition, in data set [2], the Papp A→B came to 170 nm/s.
Taken in the same sequence, the figures for `CC(C)(O)CNC(=O)c1cc(NC(=O)c2cc(-c3ncccc3F)c(F)cc2Cl)n(-c2ccccc2)n1` were 3.1 and 170 nm/s.
The molecule `COc1cc(Cl)c(C(=O)Nc2cc(C(N)=O)nn2-c2ccccc2)cc1-c1ccccn1` returned a logD in data set [1] of 2.4. The molecule also yielded a Papp A→B in [2] of 130 nm/s.
The like results for `NCCNC(=O)c1cc(NC(=O)c2cc(-c3ccccn3)c(Cl)cc2Cl)n(-c2ccccc2)n1` were, in that order, 0.94 and 7.2 nm/s.
Taken in the same sequence, the figures for `O=C(NCCO)c1cc(NC(=O)c2cc(-c3ccccn3)c(Cl)cc2Cl)n(-c2ccccc2)n1` were 2.8 and 120 nm/s.
In general, bioavailability refers to dose-corrected exposure relative to a reference, in per cent. A low value points to little systemic uptake. The term Vd denotes the apparent volume that relates the amount in the body to the concentration in plasma or blood. Higher therefore signals wide distribution into tissue. For orientation: Tmax means the time from dosing to the highest level. `NC(=O)c1cc(NC(=O)c2cc(-c3ncccc3F)ccc2Cl)n(-c2ccccc2)n1` returned a bioavailability in [3] of 100%. The molecule further displayed a Vd in data set [4] of 0.46 L/kg. Moreover, the Tmax in data set [5] was 4 h. The logD in data set [1] stood at 2.6. Moreover, in [6], the Kp uu at 4 h is 0.1. The same molecule had a Papp A→B in data set [2] of 190 nm/s.
In [1], `Cc1cc(Cl)c(C(=O)Nc2cc(C(N)=O)nn2-c2ccccc2)cc1-c1ccccn1` showed a logD of 2.6. Further, the Papp A→B in data set [2] was 120 nm/s.
The like results for `NC(=O)c1cc(NC(=O)c2cc(-c3ncccc3F)c(F)cc2Cl)n(-c2ccccc2)n1` were, in that order, 2.7 and 230 nm/s.
Taken in the same sequence, the figures for `O=C(NCCO)c1cc(NC(=O)c2cc(-c3ccccn3)c(C(F)(F)F)cc2Cl)n(-c2ccccc2)n1` were 3 and 85 nm/s.
Taken in the same sequence, the figures for `NC(=O)c1cc(NC(=O)c2cc(-c3cccc(C(F)F)n3)ccc2Cl)n(-c2ccccc2)n1` were 3.5 and 85 nm/s.
The molecule `NC(=O)c1cccc(-c2ccc(Cl)c(C(=O)Nc3cc(C(N)=O)nn3-c3ccccc3)c2)n1` had a log distribution coefficient (logD) in data set [1] of 2.3. The same molecule came in with a Papp A→B in data set [2] of 61 nm/s.
For `NC(=O)c1cc(NC(=O)c2cc(-c3ncccc3Cl)ccc2Cl)n(-c2ccccc2)n1`, the bioavailability in data set [3] was 85%. Further, the Vd in data set [4] was found to be 1.1 L/kg. In addition, the Tmax in data set [5] stood at 0.9 h. In data set [1], the logD was determined as 2.8. The molecule further displayed a Kp uu at 4 h in [6] of 0.076. The molecule further registered an apical-to-basolateral permeability (Papp A→B) in data set [2] of 140 nm/s.
Take `NC(=O)c1cc(NC(=O)c2cc(-c3ccccn3)c(OC(F)F)cc2Cl)n(-c2ccccc2)n1`: the logD in data set [1] stood at 2.7. The molecule also came in with a Papp A→B in data set [2] of 130 nm/s.
In data set [1], `O=C(NCCO)c1cc(NC(=O)c2cc(-c3ncccc3F)c(Cl)cc2Cl)n(-c2ccccc2)n1` had a logD of 2.8. Further, the Papp A→B in data set [2] worked out at 130 nm/s.
The molecule `NC(=O)c1cc(NC(=O)c2cc(-c3ccccn3)c(C3CC3)cc2Cl)n(-c2ccccc2)n1` displayed a logD in data set [1] of 3.1.
For the molecule `CC(C)(O)CNC(=O)c1cc(NC(=O)c2cc(-c3ncccc3F)c(Cl)cc2Cl)n(-c2ccccc2)n1`, in data set [7], the Kp uu at 4 h is 0.015. For the same molecule, the Vd in data set [8] came out at 1.6 L/kg. In [9], this molecule showed a bioavailability of 46%. Also, in data set [10], the Tmax came out at 3 h. The molecule also yielded a logD in data set [1] of 3.3. This molecule also displayed an apparent permeability from apical to basolateral (Papp A→B) in [2] of 120 nm/s.
For the molecule `NC(=O)c1cc(NC(=O)c2cc(-c3nc(N)ccc3Cl)ccc2Cl)n(-c2ccccc2)n1`, the logD in [1] was 3.2. For the same molecule, the Papp A→B in data set [2] was determined as 110 nm/s.
Taken in the same sequence, the figures for `NC(=O)c1cc(NC(=O)c2cc(-c3cccc(N)n3)c(Cl)cc2Cl)n(-c2ccccc2)n1` were 2.9 and 110 nm/s.
